We go through two compounds from ChEMBL document CHEMBL5338773, “First-in-Class Selective Inhibitors of the Lysine Acetyltransferase KAT8” (J Med Chem, 2023).

The test system of experiment [1] is HCT-116. In words: Induction of apoptosis in human HCT-116 cells assessed as increase in apoptotic cells at 100 uM incubated for 72 hrs in presence of chloroquine by Annexin V-FITC staining based flow cytometry. Type of experiment: functional, cell-based. A general note: Flow cytometry measures light scatter and fluorescence of single cells or particles in a stream.

The subject of a further experiment is NCI-H1299. The experiment in a line: Antiproliferative activity against human NCI-H1299 cells assessed as cell proliferation inhibition at 10 to 100 uM incubated for 72 hrs by MTT assay. Type of experiment: functional, cell-based. The note with it: dose 10-100 µM.
The target of experiment [2] is Histone acetyltransferase KAT6A (Homo sapiens) (UniProt Q92794). The experiment in a line: Inhibition of recombinant human KAT6A (488 to 778 residues) using histone H3 peptide and [3H]-acetyl-coA as substrates at 200 uM incubated for 1 hrs by liquid scintillation counter analysis.
Histone acetyltransferase KAT6A (Homo sapiens), sequence (Q92794 whole entry, looked up, the tested form may be a part): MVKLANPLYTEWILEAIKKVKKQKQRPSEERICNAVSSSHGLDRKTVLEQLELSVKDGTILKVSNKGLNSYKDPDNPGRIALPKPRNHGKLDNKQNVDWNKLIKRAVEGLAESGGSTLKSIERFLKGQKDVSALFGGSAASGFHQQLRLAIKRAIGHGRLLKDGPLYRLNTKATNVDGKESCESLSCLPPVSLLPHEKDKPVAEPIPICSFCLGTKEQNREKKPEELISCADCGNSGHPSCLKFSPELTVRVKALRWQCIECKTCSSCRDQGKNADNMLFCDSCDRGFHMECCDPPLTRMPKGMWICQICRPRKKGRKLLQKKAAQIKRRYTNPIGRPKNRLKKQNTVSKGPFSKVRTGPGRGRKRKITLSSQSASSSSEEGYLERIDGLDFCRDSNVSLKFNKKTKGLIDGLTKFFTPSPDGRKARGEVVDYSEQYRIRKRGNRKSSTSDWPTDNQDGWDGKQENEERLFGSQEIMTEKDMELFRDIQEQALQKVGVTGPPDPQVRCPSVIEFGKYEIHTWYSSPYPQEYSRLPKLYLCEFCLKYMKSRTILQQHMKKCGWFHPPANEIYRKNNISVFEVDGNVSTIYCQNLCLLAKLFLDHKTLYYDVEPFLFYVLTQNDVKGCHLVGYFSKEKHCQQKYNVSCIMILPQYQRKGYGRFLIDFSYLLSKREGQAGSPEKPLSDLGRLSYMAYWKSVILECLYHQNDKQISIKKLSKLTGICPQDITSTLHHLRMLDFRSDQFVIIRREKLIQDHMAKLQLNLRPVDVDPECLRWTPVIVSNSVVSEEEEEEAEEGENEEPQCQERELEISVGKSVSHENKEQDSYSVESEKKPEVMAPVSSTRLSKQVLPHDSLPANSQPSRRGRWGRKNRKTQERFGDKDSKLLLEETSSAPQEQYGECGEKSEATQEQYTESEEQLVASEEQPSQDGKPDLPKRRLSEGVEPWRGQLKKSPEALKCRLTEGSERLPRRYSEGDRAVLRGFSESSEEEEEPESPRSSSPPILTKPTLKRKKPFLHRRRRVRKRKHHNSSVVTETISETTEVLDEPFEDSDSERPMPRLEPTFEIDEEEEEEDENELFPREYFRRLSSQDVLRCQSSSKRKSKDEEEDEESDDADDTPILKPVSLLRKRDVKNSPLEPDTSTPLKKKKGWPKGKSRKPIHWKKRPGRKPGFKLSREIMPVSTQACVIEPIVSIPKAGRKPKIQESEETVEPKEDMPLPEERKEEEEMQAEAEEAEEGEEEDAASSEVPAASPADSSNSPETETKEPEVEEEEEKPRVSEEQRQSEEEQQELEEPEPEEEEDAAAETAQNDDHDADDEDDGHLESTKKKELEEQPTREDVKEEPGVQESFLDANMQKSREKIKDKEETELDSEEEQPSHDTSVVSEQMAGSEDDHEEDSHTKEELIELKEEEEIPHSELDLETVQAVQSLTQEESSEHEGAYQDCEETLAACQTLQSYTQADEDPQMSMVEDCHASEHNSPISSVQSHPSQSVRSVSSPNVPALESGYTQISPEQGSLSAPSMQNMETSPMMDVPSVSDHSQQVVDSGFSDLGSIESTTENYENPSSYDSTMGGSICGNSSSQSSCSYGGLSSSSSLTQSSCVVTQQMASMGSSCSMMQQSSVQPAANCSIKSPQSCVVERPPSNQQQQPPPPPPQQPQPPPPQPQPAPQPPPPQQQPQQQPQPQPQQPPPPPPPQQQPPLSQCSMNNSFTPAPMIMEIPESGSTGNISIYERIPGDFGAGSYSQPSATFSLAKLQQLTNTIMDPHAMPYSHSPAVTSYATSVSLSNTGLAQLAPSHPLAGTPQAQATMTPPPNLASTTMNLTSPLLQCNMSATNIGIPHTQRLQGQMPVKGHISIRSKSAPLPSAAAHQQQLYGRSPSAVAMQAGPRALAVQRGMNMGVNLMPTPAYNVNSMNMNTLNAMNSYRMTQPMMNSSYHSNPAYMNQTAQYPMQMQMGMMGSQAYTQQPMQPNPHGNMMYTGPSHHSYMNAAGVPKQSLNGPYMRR
For experiment [3], the target named is Histone acetyltransferase KAT7 (Homo sapiens) (UniProt O95251). The experiment in a line: Inhibition of recombinant human full length KAT7 using histone H3 peptide and [3H]-acetyl-coA as substrates at 200 uM incubated for 1 hrs by liquid scintillation counter analysis.
Histone acetyltransferase KAT7 (Homo sapiens), sequence (O95251 whole entry): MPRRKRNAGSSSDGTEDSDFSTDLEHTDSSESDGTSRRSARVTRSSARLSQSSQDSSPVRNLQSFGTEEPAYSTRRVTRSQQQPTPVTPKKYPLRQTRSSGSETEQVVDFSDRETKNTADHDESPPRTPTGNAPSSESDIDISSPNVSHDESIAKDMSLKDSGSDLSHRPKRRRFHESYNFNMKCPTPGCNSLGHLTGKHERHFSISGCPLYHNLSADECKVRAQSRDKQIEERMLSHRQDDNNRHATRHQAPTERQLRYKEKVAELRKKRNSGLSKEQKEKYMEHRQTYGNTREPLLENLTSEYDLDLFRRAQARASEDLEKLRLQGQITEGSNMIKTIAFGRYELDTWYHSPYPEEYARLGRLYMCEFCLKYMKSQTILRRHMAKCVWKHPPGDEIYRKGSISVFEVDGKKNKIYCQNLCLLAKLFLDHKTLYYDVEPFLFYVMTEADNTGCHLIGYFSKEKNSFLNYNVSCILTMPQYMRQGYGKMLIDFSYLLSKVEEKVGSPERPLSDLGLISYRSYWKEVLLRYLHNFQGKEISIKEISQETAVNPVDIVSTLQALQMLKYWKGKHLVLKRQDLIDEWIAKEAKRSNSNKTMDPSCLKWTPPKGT
Experiment [4] has as its system HT-29. In words: Induction of apoptosis in human HT-29 cells assessed as slight increase in apoptotic cells at 50 to 100 uM incubated for 72 hrs by Annexin V-FITC staining based flow cytometry. Type of experiment: functional, cell-based. The following applies: dose 50-100 µM.
Experiment [5] concerns HeLa. In words: Antiproliferative activity against human HeLa cells assessed as cell proliferation inhibition at 10 to 100 uM incubated for 72 hrs by MTT assay. Type of experiment: functional, cell-based. The following applies: dose 10-100 µM.
The test system of experiment [6] is HT-29. In words: Antiproliferative activity against human HT-29 cells assessed as cell proliferation inhibition at 10 to 100 uM incubated for 72 hrs by MTT assay. Type of experiment: functional, cell-based. The note with it: dose 10-100 µM. In general terms: Formazan colour is commonly taken as a measure of viable cells.
The subject of experiment [7] is HCT-116. In words: Antiproliferative activity against human HCT-116 cells assessed as cell proliferation inhibition at 100 uM incubated for 72 hrs by MTT assay. Type of experiment: functional. Also on record: scale not given: the % may be the effect or the level left.
Experiment [8] deals with HeLa. The experiment in a line: Induction of autophagy in human HeLa cells stably expressing EGFP-LC3 assessed as change in LC3-II/LC3-I ratio at 10 to 100 uM incubated for 48 hrs by Western blot analysis. Type of experiment: functional, cell-based. The note with it: dose 10-100 µM.
The subject of experiment [9] is HeLa. The experiment in a line: Induction of autophagy in human HeLa cells stably expressing EGFP-LC3 assessed as increase in p62 expression level at 10 to 100 uM incubated for 48 hrs by Western blot analysis. In kind it is functional, cell-based. The note with it: dose 10-100 µM.
Experiment [10] has as its system HCT-116. In words: Downregulation of HOXA9A mRNA expression in human HCT-116 cells at 100 uM incubated for 48 hrs by qRT-PCR analysis. Type of experiment: functional, cell-based. Background: In qPCR the cycle at which signal appears reflects the starting amount.
Experiment [11] deals with T1, Histone acetyltransferase KAT8 (Homo sapiens) (UniProt Q9H7Z6).
T1 sequence (whole entry): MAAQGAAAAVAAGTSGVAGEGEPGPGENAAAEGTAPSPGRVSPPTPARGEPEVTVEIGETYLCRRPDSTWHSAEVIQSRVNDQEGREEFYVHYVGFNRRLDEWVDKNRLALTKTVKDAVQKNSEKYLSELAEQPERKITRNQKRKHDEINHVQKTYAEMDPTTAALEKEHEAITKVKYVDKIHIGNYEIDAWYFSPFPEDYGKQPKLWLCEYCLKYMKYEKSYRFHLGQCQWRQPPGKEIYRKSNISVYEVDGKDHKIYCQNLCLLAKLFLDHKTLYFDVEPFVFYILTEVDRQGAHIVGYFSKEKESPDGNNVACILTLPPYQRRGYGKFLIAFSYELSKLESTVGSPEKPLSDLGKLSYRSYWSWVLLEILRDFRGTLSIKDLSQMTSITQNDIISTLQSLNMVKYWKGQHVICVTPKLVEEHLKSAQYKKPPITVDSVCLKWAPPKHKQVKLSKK
The experiment in a line: Inhibition of human KAT8 in human HT-29 cells assessed as decrease in histone H4K16 acetylation level by measuring fluorescence intensity in nucleus at 50 uM incubated for 24 hrs by DAPI staining based immunofluorescence analysis. In kind it is cell-based.

Activity calls are given as the source filed them. No cut-off for these calls is given here.

Take `CC1=NN(c2ccc(C(=O)O)cc2)C(=O)/C1=C\c1ccc[nH]1`: the result with HCT-116 [1], in the experiment with HT-29 [4], in the experiment with HeLa [5] and with HT-29 [6] was Active. Besides, the Activity entry is “Dose-Dependent Effect” with NCI-H1299 and more than 80% in the experiment with HCT-116 [7]. In addition, the inhibition entry in [2] and in experiment [3] was “inactive” in each case.

Take `O=C(O)c1ccc(N2N=C(c3ccccc3)/C(=C/c3ccc[nH]3)C2=O)cc1`: the result in the experiment on HCT-116 [1], in the experiment on HeLa [8], in the experiment with HeLa [9], in the experiment with HCT-116 [10], in the experiment on HT-29 [4] and in the experiment with HeLa [5] was Active. The outcome in the experiment with HT-29 [6] was Active. The Activity entry with NCI-H1299 was “Dose-Dependent Effect”. In addition, in experiment [11], the inhibition is more than 50%.

A word on the inhibition: it is the change of the read-out against control, counted positive when it falls.
